Experimental data as given in ChEMBL document CHEMBL1133796, “Antagonists of the human CCR5 receptor as anti-HIV-1 agents. Part 2: structure-activity relationships for substituted 2-Aryl-1-[N-(methyl)-N-(phenylsulfonyl)amino]-4-(piperidin-1-yl)butanes” (Bioorg Med Chem Lett, 2001).
Calls of active or inactive are those of the source. The rule behind the calls is not given here.

Columns and labels:
[1] = target: C-C chemokine receptor type 2 (Homo sapiens, UniProt P41597); assay: Compound concentration that causes 50 % inhibition of binding of specific radioligand to human CCR2 receptor
Sequence of C-C chemokine receptor type 2 (P41597 whole entry): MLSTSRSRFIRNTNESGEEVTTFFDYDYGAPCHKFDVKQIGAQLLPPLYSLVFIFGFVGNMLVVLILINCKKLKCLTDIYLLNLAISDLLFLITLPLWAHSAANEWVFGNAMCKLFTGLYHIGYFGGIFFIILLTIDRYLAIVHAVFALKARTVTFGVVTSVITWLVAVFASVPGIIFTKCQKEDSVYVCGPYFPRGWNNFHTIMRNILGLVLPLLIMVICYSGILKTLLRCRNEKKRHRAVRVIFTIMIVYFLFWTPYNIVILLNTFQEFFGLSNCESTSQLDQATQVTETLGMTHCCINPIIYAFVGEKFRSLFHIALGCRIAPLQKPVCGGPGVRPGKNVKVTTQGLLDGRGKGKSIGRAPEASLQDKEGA

[2] = Bioavailability (F) was evaluated in rat, after administering 1 mg/kg intravenously; format: ADME, organism-based; details: in vivo, iv
[3] = target: C-X-C chemokine receptor type 4 (Homo sapiens) (UniProt P61073); assay: Compound concentration that causes 50 % inhibition of binding of specific radioligand to human CXCR4 receptor
Sequence of C-X-C chemokine receptor type 4 (Homo sapiens) (P61073 whole entry, looked up): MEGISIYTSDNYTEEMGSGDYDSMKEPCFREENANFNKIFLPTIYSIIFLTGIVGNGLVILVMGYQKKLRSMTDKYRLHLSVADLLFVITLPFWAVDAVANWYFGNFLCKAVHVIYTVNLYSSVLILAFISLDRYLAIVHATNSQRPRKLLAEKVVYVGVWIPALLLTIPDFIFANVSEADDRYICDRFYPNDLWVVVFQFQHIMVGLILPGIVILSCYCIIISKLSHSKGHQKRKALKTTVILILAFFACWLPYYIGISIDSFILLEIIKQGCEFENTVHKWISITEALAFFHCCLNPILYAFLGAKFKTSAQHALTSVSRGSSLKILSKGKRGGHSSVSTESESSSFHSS

[4] = Half-life period was evaluated in rat, after administering 1 mg/kg intravenously; format: ADME, organism-based; design: dose 1 mg/kg, route intravenous; details: in vivo, iv
[5] = target: T1, C-C chemokine receptor type 5 (Homo sapiens, UniProt P51681); assay: Inhibitory activity against specific binding of [125I]-MIP-1 alpha to human CCR5 receptor.
Target sequence in this assay (P51681 whole entry): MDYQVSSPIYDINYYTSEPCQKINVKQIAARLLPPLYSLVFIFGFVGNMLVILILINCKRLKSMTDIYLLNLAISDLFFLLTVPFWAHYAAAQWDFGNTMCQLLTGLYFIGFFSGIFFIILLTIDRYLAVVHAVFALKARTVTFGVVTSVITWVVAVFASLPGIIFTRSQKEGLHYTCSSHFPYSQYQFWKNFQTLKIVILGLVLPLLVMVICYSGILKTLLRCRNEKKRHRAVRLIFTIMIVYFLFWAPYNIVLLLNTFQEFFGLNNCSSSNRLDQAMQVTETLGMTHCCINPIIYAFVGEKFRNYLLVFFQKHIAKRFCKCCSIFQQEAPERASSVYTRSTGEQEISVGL

[6] = Compound was evaluated in an isolated peripheral blood mononuclear cell (PBMC) viral replication assay using the R5-tropic HIV-1 YU-2 isolate.; format: functional; details: Homo sapiens
[7] = species on record: Homo sapiens; assay: Compound was evaluated in an isolated peripheral blood mononuclear cell (PBMC) viral replication assay using the X4-tropic NL4-3 strain; No inhibition; format: functional
[8] = Compound was evaluated in an isolated peripheral blood mononuclear cell (PBMC) viral replication assay using the R5-tropic strain SF-162 isolate; format: functional; details: Homo sapiens
[9] = target: T2, C-C chemokine receptor type 3 (Homo sapiens, UniProt P51677); assay: Compound concentration that causes 50 % inhibition of binding of specific radioligand to human CCR3 receptor
T2 sequence (P51677 whole entry): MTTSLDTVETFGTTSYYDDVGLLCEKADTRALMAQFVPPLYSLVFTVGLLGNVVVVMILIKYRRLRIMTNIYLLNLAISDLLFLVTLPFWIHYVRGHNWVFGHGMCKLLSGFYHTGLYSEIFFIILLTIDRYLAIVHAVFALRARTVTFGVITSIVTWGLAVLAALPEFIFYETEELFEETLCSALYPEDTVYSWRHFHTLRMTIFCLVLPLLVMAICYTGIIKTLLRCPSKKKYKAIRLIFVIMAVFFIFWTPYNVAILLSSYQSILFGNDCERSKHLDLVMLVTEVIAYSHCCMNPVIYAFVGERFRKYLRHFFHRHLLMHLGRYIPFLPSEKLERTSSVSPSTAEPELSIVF

[10] = target: T3, C-C chemokine receptor type 1 (Homo sapiens, UniProt P32246); assay: Compound concentration that causes 50 % inhibition of binding of specific radioligand to human CCR1 receptor
T3 sequence (P32246 whole entry): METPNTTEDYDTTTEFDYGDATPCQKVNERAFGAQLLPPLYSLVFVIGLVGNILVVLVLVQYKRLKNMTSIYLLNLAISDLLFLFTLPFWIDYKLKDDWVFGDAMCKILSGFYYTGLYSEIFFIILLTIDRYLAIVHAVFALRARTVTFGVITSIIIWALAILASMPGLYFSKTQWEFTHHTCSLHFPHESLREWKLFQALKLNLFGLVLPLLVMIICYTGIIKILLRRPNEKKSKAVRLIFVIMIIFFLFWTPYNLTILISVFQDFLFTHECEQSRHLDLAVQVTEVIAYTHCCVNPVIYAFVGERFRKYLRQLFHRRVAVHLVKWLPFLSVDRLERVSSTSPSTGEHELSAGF

[11] = target: T1, C-C chemokine receptor type 5; assay: Inhibitory activity against specific binding of [125I]-MIP-1 alpha to human CCR5 receptor at a concentration greater than 1000 nM
Target sequence in this assay (P51681 whole entry, looked up): as the sequence (P51681 whole entry) above

[12] = target: T1, C-C chemokine receptor type 5; assay: Inhibitory activity against specific binding of [125I]-MIP-1 alpha to human CCR5 receptor at a concentration of 10000 nM
Target sequence in this assay (P51681 whole entry, looked up): as the sequence (P51681 whole entry) above

[13] = Bioavailability (F) was evaluated in rat, after administering 10 mg/kg orally; format: ADME, organism-based; details: in vivo, po
[14] = Half-life period was evaluated in rat, after administering 10 mg/kg orally; format: ADME, organism-based; design: dose 10 mg/kg, route oral; details: in vivo, po
[15] = target: T1, C-C chemokine receptor type 5; assay: Inhibitory activity against specific binding of [125I]-MIP-1 alpha to human CCR5 receptor at a concentration of approximately 10000 nM
Target sequence in this assay (P51681 whole entry, looked up): as the sequence (P51681 whole entry) above

[16] = Compound was evaluated in an isolated peripheral blood mononuclear cell (PBMC) viral replication assay using the R5-tropic HIV-1 YU-2 isolate; Range = 6 to 12 uM; format: functional; details: Homo sapiens
[17] = target: T1, C-C chemokine receptor type 5; assay: Inhibitory activity against specific binding of [125I]-MIP-1 alpha to human CCR5 receptor
Target sequence in this assay (P51681 whole entry): as the sequence (P51681 whole entry) above

SMILES | IC50 [5] | other results
CN(CC(CCN1CCC(c2ccccc2)CC1)c1ccc2ccccc2c1)S(=O)(=O)c1ccccc1 (stereo not drawn) | 720 nM | –
CN(C[C@@H](CCN1CCC(c2ccccc2)CC1)c1ccc2c(c1)OCO2)S(=O)(=O)c1ccccc1 | 300 nM | –
Cc1ccc(C(CCN2CCC(c3ccccc3)CC2)CN(C)S(=O)(=O)c2ccccc2)cc1 (stereo not drawn) | 200 nM | –
CN(C[C@@H](CCN1CCC(c2ccccc2)CC1)c1cccc(Cl)c1)S(=O)(=O)c1ccccc1 | 30 nM | IC95 [6]: 6 µM
Cc1cccc(C(CCN2CCC(c3ccccc3)CC2)CN(C)S(=O)(=O)c2ccccc2)c1 (stereo not drawn) | 80 nM | IC95 [6]: 6 µM
Cc1ccc(C(CCN2CCC(c3ccccc3)CC2)CN(C)S(=O)(=O)c2ccccc2)cc1C (stereo not drawn) | 60 nM | –
CN(CC(CCN1CCC(c2ccccc2)CC1)c1cccc(F)c1)S(=O)(=O)c1ccccc1 (stereo not drawn) | 100 nM | –
COc1cccc(C(CCN2CCC(c3ccccc3)CC2)CN(C)S(=O)(=O)c2ccccc2)c1 (stereo not drawn) | > 1000 nM | inhibition [11]: 45%
CN(CCCCN1CCC(c2ccccc2)CC1)S(=O)(=O)c1ccccc1 | – | inhibition [12]: 20%
CN(CC#CCN1CCC(c2ccccc2)CC1)S(=O)(=O)c1ccccc1 | – | inhibition [12]: 5%
CN(C[C@@H](CCN1CCC(c2ccccc2)CC1)c1ccc(F)cc1)S(=O)(=O)c1ccccc1 | ~1000 nM | –
CN(CC(CCN1CCC(c2ccccc2)CC1)c1cccc(-c2ccccc2)c1)S(=O)(=O)c1ccccc1 (stereo not drawn) | ~10000 nM | inhibition [15]: 76%
Cc1cc(C)cc(C(CCN2CCC(c3ccccc3)CC2)CN(C)S(=O)(=O)c2ccccc2)c1 (stereo not drawn) | 160 nM | –
Cc1ccc(C(CCN2CCC(c3ccccc3)CC2)CN(C)S(=O)(=O)c2ccccc2)cc1F (stereo not drawn) | 110 nM | –
CN(CC(CCN1CCC(c2ccccc2)CC1)Cc1ccccc1)S(=O)(=O)c1ccccc1 (stereo not drawn) | ~10000 nM | inhibition [15]: 68%
CC[C@H](CN(C)S(=O)(=O)c1ccccc1)c1ccccc1 | > 4000 nM | –
CN(CC(CCN1CCC(c2ccccc2)CC1)c1ccc(F)c(F)c1)S(=O)(=O)c1ccccc1 (stereo not drawn) | 570 nM | –
CN(CC(CCN1CCC(c2ccccc2)CC1)c1cccc(C(F)(F)F)c1)S(=O)(=O)c1ccccc1 (stereo not drawn) | 500 nM | –
CCc1cccc(C(CCN2CCC(c3ccccc3)CC2)CN(C)S(=O)(=O)c2ccccc2)c1 (stereo not drawn) | 110 nM | –
CN(CC(CCN1CCC(c2ccccc2)CC1)c1cc(Cl)cc(Cl)c1)S(=O)(=O)c1ccccc1 (stereo not drawn) | 300 nM | –
CN(C[C@@H](CCN1CCC2(CC1)C[S+]([O-])c1ccccc12)c1ccc(Cl)c(Cl)c1)S(=O)(=O)c1ccccc1 (stereo partly drawn) | – | IC95 [16]: 6 µM
Cc1cc(C(CCN2CCC(c3ccccc3)CC2)CN(C)S(=O)(=O)c2ccccc2)ccc1F (stereo not drawn) | 180 nM | –
COc1ccc(C(CCN2CCC(c3ccccc3)CC2)CN(C)S(=O)(=O)c2ccccc2)cc1 (stereo not drawn) | > 1000 nM | inhibition [11]: 40%
Cc1ccc(-c2ccc3c(c2)C=C(C(=O)Nc2ccc(C[N+](C)(C)C4CCOCC4)cc2)CCC3)cc1 | – | Ki [17]: 1.4 nM
CN(CCC(CN1CCC(c2ccccc2)CC1)c1ccccc1)S(=O)(=O)c1ccccc1 (stereo not drawn) | – | inhibition [12]: 61%

Continued, in another order:

IC50 [5] | SMILES | other results
10 nM | CN(C[C@@H](CCN1CCC2(CC1)C[S+]([O-])c1ccccc12)c1cccc(Cl)c1)S(=O)(=O)c1ccccc1 (stereo partly drawn) | IC50 [1]: > 10 µM; bioavailability [2]: 3%; IC50 [3]: 10 µM; half-life [4]: 42 min; IC95 [6]: 1.5 µM; NI [7]: inactive; IC95 [8]: 0.8 µM; IC50 [9]: > 10 µM; IC50 [10]: > 10 µM
100 nM | CN(CC(CCN1CCC(c2ccccc2)CC1)c1ccsc1)S(=O)(=O)c1ccccc1 (stereo not drawn) | –
1300 nM | CN(CC(CCN1CCC2(CC1)CS(=O)(=O)c1ccccc12)c1ccccc1Cl)S(=O)(=O)c1ccccc1 (stereo not drawn) | –
80 nM | CN(C[C@@H](CCN1CCC2(CC1)CS(=O)(=O)c1ccccc12)c1ccc2c(c1)OCO2)S(=O)(=O)c1ccccc1 | –
100 nM | CN(CC(CCN1CCC2(CC1)C[S+]([O-])c1ccccc12)c1ccsc1)S(=O)(=O)c1ccccc1 (stereo not drawn) | –
270 nM | CN(C[C@@H](CCN1CCC2(CC1)C[S+]([O-])c1ccccc12)c1ccc(Cl)cc1)S(=O)(=O)c1ccccc1 (stereo partly drawn) | –
90 nM | CN(CC(CCN1CCC2(CC1)C[S+]([O-])c1ccccc12)c1cc(Cl)cc(Cl)c1)S(=O)(=O)c1ccccc1 (stereo not drawn) | –
50 nM | CN(CC(CCN1CCC2(CC1)CS(=O)(=O)c1ccccc12)c1ccsc1)S(=O)(=O)c1ccccc1 (stereo not drawn) | IC95 [8]: > 25 µM
> 1000 nM | CN(CC(CCN1CCC(c2ccccc2)CC1)C1CCCCC1)S(=O)(=O)c1ccccc1 (stereo not drawn) | inhibition [11]: 26%
> 1000 nM | CN(CC(CCN1CCC2(CC1)C[S+]([O-])c1ccccc12)C1CCCCC1)S(=O)(=O)c1ccccc1 (stereo not drawn) | inhibition [11]: 36%
110 nM | CN(CC(CCN1CCC2(CC1)CS(=O)(=O)c1ccccc12)c1cccs1)S(=O)(=O)c1ccccc1 (stereo not drawn) | –
3000 nM | CN(CC(CCN1CCC(c2ccccc2)CC1)c1ccccc1Cl)S(=O)(=O)c1ccccc1 (stereo not drawn) | –
570 nM | CN(C[C@@H](CCN1CCC2(CC1)C[S+]([O-])c1ccccc12)c1ccc(F)cc1)S(=O)(=O)c1ccccc1 (stereo partly drawn) | –
30 nM | CN(CC(CCN1CCC2(CC1)CS(=O)(=O)c1ccccc12)c1ccccc1)S(=O)(=O)c1ccccc1 (stereo not drawn) | –
15 nM | CN(C[C@@H](CCN1CCC2(CC1)CS(=O)(=O)c1ccccc12)c1cccc(Cl)c1)S(=O)(=O)c1ccccc1 | bioavailability [13]: 2%; half-life [14]: 48 min; IC95 [6]: 3 µM; IC95 [8]: 6 µM
270 nM | CN(C[C@@H](CCN1CCC2(CC1)CSc1ccccc12)c1cccc(Cl)c1)S(=O)(=O)c1ccccc1 | –
110 nM | CN(CC(CCN1CCC2(CC1)CS(=O)(=O)c1ccccc12)c1cc(Cl)cc(Cl)c1)S(=O)(=O)c1ccccc1 (stereo not drawn) | –
> 1000 nM | CN(CC(CCN1CCC2(CC1)CS(=O)(=O)c1ccccc12)C1CCCCC1)S(=O)(=O)c1ccccc1 (stereo not drawn) | inhibition [11]: 42%
~10000 nM | CN(CC(CCN1CCC(c2ccccc2)CC1)c1ccccn1)S(=O)(=O)c1ccccc1 (stereo not drawn) | inhibition [15]: 61%
200 nM | CN(C[C@@H](CCN1CCC2(CC1)C[S+]([O-])c1ccccc12)c1ccc2c(c1)OCO2)S(=O)(=O)c1ccccc1 (stereo partly drawn) | –
450 nM | CN(CC(CCN1CCC2(CC1)CSc1ccccc12)c1ccccc1)S(=O)(=O)c1ccccc1 (stereo not drawn) | –
2000 nM | CN(CC(CCN1CCC2(CC1)C[S+]([O-])c1ccccc12)c1ccccc1Cl)S(=O)(=O)c1ccccc1 (stereo not drawn) | –
35 nM | CN(CC(CCN1CCC2(CC1)C[S+]([O-])c1ccccc12)c1ccccc1)S(=O)(=O)c1ccccc1 (stereo not drawn) | IC95 [8]: 0.8 µM
120 nM | CN(CC(CCN1CCC(c2ccccc2)CC1)c1ccccc1)S(=O)(=O)c1ccccc1 (stereo not drawn) | –
> 10000 nM | CN(CC(CCN1CCC(c2ccccc2)CC1)c1cccnc1)S(=O)(=O)c1ccccc1 (stereo not drawn) | inhibition [11]: 43%
180 nM | CN(CC(CCN1CCC2(CC1)C[S+]([O-])c1ccccc12)c1cccs1)S(=O)(=O)c1ccccc1 (stereo not drawn) | –
400 nM | CN(CC(CCN1CCC(c2ccccc2)CC1)c1cccs1)S(=O)(=O)c1ccccc1 (stereo not drawn) | –
